Source: patent US7387779B2, “Anti-angiogenic proteins and fragments and methods of use thereof” (Beth Israel Deaconess Medical Center, priority 1998, dated 2008)

B1: Tum-5-125-C-A: Tumstatin-44-131 with cysteine at position 125 mutated to alanine (SEQ ID NO:34) (protein)
chain: FSFLFVQGNQRAHGQDLGTLGSCLQRFTTMPFLFCNVNDVCNFASRNDYSYWLSTPALMPMNMAPITGRALEPYISRCTVAEGPAIAI
modifications: Tumstatin-5-125-C-A (amino acids 45-132 of SEQ ID NO10; alanine has been substituted for the cysteine residue at position 125 of the full-length Tumstatin molecule)

Columns and labels:
C-PAE cells [1] = test: Annexin V-FITC apoptosis assay; assay type: cell-based, bovine; conditions: 5 μg/ml Arresten, 40 ng/ml TNFα
Experimental: Fifty thousand C-PAE cells were added to each well of a 6-well tissue culture plate in DMEM supplemented with 10% FBS for 12 hours. Fresh medium together and either 5 μg/ml Arresten or 40 ng/ml TNFα (positive control) was added at 2, 4 and 6 hour time points. Control wells received an equal of volume of PBS. Detached cells and adherent cells were pooled together and centrifuged at 1500 rpm. Cells were washed with binding buffer (Clontech, Palo Alto, Calif., USA), and phosphatidyl-serine (PS) externalization, an indicator of apoptosis, was measured by labeling with FITC-labeled annexin V (Clontech) according to manufacturer's instructions. Annexin-FITC labeled cells were counted using a FACStar Plus flow cytometer (Becton-Dickinson, Waltham, Mass., USA). For each treatment, 10,000 cells were counted and stored. […] Relative to controls, the percentage of annexin-V-stained (apoptotic) cells increased to about 27% at 2 hours, and near 20% at 4 and 6 hours for the positive control, TNFα. For Arresten-treated cells, the percentage of apoptotic cells was about 18% at 2 hours, and about 23% at 4 and 6 hours.
Annexin V-FITC Labeling. In order to establish apoptosis as the potential mode of action for Canstatin, Annexin V-FITC was used to label externalized phosphatidylserine (PS), to assess apoptotic cells. 0.5×10^6 C-PAE cells, PC-3, 786-O and HEK 293 cells were added to each well of a 6 well tissue culture plate in 10% FBS supplemented DMEM (BioWhittaker, Walkersville, Md., USA) overnight. The next day, fresh medium was added to all wells together with 40 ng/ml TNF-α (positive control) or 15 μg/ml Canstatin. Control cells received an equal volume of PBS. After 24 hours of treatment, medium containing detached cells was collected and attached cells were trypsinized and combined with detached cells and centrifuged at 3,000×g. Cells were then washed and phosphatidyl-serine externalization (an early apoptotic indicator) was measured by labeling with FITC-labeled annexin V (Clontech, Palo Alto, Calif., USA) according to the manufacturer's instructions. Annexin V-FITC-labeled cells were counted using a FAC Star Plus flow cytometer (Becton-Dickenson, Waltham, Mass., USA). For each treatment 15,000 cells were counted and stored in listmode.
C-PAE cells (0.5×10^6 per well) were seeded onto a 6-well plate in 10% FCS supplemented DMEM. The next day, fresh medium containing 10% FCS was added with either 80 ng/ml of TNF-α (positive control) or Tumstatin ranging from 0.02 to 20 μg/ml. Control cells received an equal volume of PBS. After 18 hours of treatment, medium containing floating cells was collected, and attached cells were trypsinized and centrifuged together with floating cells at 3,000×g. The cells were then washed in PBS and resuspended in binding buffer (10 mM HEPES/NaOH, pH 7.4, 140 mM NaCl, 2.5 mM CaCl2). Annexin V-FITC (Clontech, Palo Alto, Calif., USA) was added to a final concentration of 150 ng/ml, and the cells were incubated in the darkness for 10 minutes. The cells were washed again in PBS and resuspended in binding buffer. Annexin V-FITC labeled cells were counted using a FACStar Plus flow cytometer (Becton-Dickinson, Waltham, Mass., USA). For each treatment, 15,000 cells were counted and stored in listmode.
Apoptosis was measured by Annexin V-FITC assay, using the ApoAlert kit (Clontech, Palo Alto, Calif., USA). Propidium iodide was used to stain the nuclei of cells that had died by ways other than apoptosis.
The assay was performed as described above, by treating C-PAE cells with Tumstatin-44-131 for 18 hours. Control cells received PBS.

Caspase-3 in C-PAE cells [2] = test: Caspase-3 assay; assay type: cell-based, bovine; conditions: TNF-α 80 ng/ml
Experimental: Tumstatin also altered cell morphology of C-PAE cells as monitored by phase contrast microscopy. After treating cells with 20 μg/ml of Tumstatin in the presence of 10% FCS for 24 hours on fibronectin-coated plates, the typical morphological features of apoptotic cells, membrane blebbing, cytoplasmic shrinkage, and chromatin condensation could be observed. […] Caspase-3 assay: Caspase-3 (CPP32) is an intracellular protease activated at the early stage of apoptosis, and initiates cellular breakdown by degrading structural and DNA repair proteins (Casciola-Rosen, L. et al., 1996, J. Exp. Med. 183:1957-64; Salvesen, G. S. et al., 1997, Cell 91:443-46). The protease activity of Caspase-3 was measured spectrophotometrically by detection of the chromophore (p-nitroanilide) cleaved from the labeled substrate (DEVD-pNA). C-PAE cells or PC-3 cells (0.5×10^6 per well) were plated onto a 6-well plate precoated with fibronectin (10 μg/ml) in DMEM supplemented with 10% FCS, and incubated overnight. The next day, the medium was replaced with DMEM containing 2% FCS and then incubated overnight at 37° C. Then cells were then stimulated with bFGF (3 ng/ml) in DMEM supplemented with 2% FCS, and also containing either TNF-α (80 ng/ml, positive control) or Tumstatin (10 μg/ml), and incubated for 24 hours. Controls received PBS buffer. After 24 hours, the supernatant cells were collected, and attached cells were trypsinized and combined with the supernatant cells. Cells were counted and resuspended in cell lysis buffer (Clontech) at a concentration of 4×10^7 cells/ml. The rest of the protocol followed the manufacturer's instructions (Clontech). A specific inhibitor of Caspase-3, DEVD-fmk (Asp-Glu-Val-Asp-fluoromethyl ketone) was used to confirm the specificity of the assay. The absorbance was measured in a microplate reader (Bio-Rad, Hercules, Calif., USA) at 405 nm. The assay was repeated three times for each cell type.
Apoptosis was also evaluated by measuring Caspase-3 activity as described in Example 27, above. The results are shown in FIG. 35, which is a histogram showing Caspase-3 activity as a measure of absorbance at OD405 (y-axis) of C-PAE cells treated (x-axis) with 5 μg/ml Tum-1, Tum-2, Tum-3 or Tum-4, or 80 ng/ml TNF-α or PBS buffer (control).
Caspase-3 activity was also assayed as described above. DEVD-fmk, a specific caspase-3 inhibitor, was used as an internal control to show specificity of Tumstatin-44-131. TNF-α (80 ng/ml) was used as a positive control. The experiments were repeated three times.
The protease activity of Caspase-3 in cells treated with T3 peptide was measured spectrophotometrically by detection of the chromophore (p-nitroanilide) cleaved from the labeled substrate (DEVD-pNA). […] In PC-3 nonendothelial cells, there was no difference in Caspase-3 activity between control treatments and T3 peptide-treated cells.

Caspase-3 in C-PAE cells [3] = test: Caspase-3 assay; assay type: cell-based, bovine; conditions: 20 μg/ml Tumstatin; TNF-α positive control
PC-3 cells = test: MTT cell viability assay; assay type: cell-based, human; conditions: 0-50 μg/ml
Experimental: (§1) Cell viability was measured by MTT assay, as described above.
(§2) The effects of Tumstatin-44-131 and Tum-5-125-C-A on cell viability of C-PAE cells were not seen in control PC-3 and DU-145 cells, as shown in FIGS. 52C and 52D. […] The activity of Tumstatin-44-131 is therefore specific to endothelial cells.

DU-145 cells = test: MTT cell viability assay; assay type: cell-based; conditions: 0-50 μg/ml
Experimental: as §1, §2

Goodpasture autoantibody = test: Reactivity with Goodpasture autoantibody (western blotting); assay type: binding, human
Source text: Goodpasture syndrome is an autoimmune disease characterized by pulmonary hemorrhage and/or rapidly progressing glomerulonephritis, which are caused by the disruption of glomerular and alveolar basement membranes through immune injury associated with autoantibody activity against α3(IV) NC1. Recently, the most probable disease-related pathogenic epitope was identified in the N-terminal portion (Kalluri, R. et al., 1996, J. Biol. Chem. 271:9062-8; Hellmark, T. et al., 1999, Kidney Int. 55:938-44), and was then further confined within the N-terminal 40 amino acids (Hellmark, T. et al., 1999, J. Biol. Chem. 274:25862-8; Netzer, K. O. et al., 1999, J. Biol. Chem. 274:11267-74). The N-terminal Tumstatin-44-131 consists of residues 44-131 of Tumstatin, which is outside of the Goodpasture autoepitope. To further confirm that Tumstatin-44-131 would not be detected by Goodpasture autoantibody, antisera from patients with Goodpasture was used for western blotting.

C-PAE cells [4] = test: Cell cycle analysis (propidium iodide, flow cytometry); assay type: cell-based, bovine
Experimental: To further evaluate the mechanism of T3 peptide on endothelial cell proliferation, the effect of T3 peptide on cell cycle progression was analyzed. In the growth arrested and contact inhibited cells (0 hour), 4.1% of cells were in S phase. […] This was true even at a maximal dosage of 100 μg/ml. The effect of the T3 peptide was dose-dependent, however, with the percentage of cells in S phase at 21.4% at 10 μg/ml, and 20.5% at 25 μg/ml. The percentage of cells in G0/G1 phase was 88.3% at 0 hour, 53.4% for the bFGF control, and 57.6%, 57.6% and 71.0% for treatments with T1, T6 and T3 peptide, respectively. […] Apoptotic Activity: Peptides T2, T3, T4, T5 and T6 (10 μg/ml concentration) were tested for their effect of viability of C-PAE cells using the MTT assay, as described in Examples 32 and 36 above. The results are shown in FIG. 43D, which is a histogram showing cell viability as measured at OD595 (y-axis), and treatments with the synthetic peptides (x-axis). […] TNF-α (100 ng/ml) was used to serve as a positive control in inducing endothelial cell apoptosis.
The effect of Tumstatin-44-131 and Tum-5-125-C-A on the cell cycle were assayed similarly to Example 4 above. Briefly, C-PAE cells were growth arrested by contact inhibition for 48 hours. The cells, at 10^5 cells per well, were then harvested and plated into a 12-well plate coated with fibronectin in 5% FCS and either recombinant Tumstatin-44-131 or Tum-5-125-C-A. After 21 hours, the cells were harvested and fixed in 70% ice-cold ethanol. The fixed cells were rehydrated a room temperature for 30 minutes in PBS containing 2% FCS and 0.1% Tween-20, centrifuged and resuspended in 0.5 ml of the same buffer. RNase (5 μg/ml) digestion was done at 37° C. for one hour, followed by staining with propidium iodide (5 μg/ml). The cells were then counted using an EPICS XL-MCL flow cytometer (Beckman-Coulter Instruments, Fullerton, Calif., USA).

PC-3 tumors = test: PC-3 xenograft in athymic nude NCRNU mice (Example 46); assay type: in vivo; conditions: 1 mg/kg i.p. b.i.d., 20 days
Experimental: Tumstatin-44-131 was also tested for its ability to suppress tumor growth. Male athymic nude NCRNU mice, of 5-6 weeks of age and about 25 g, were implanted with […] approximately 2×10^6 PC-3 (prostate cancer carcinoma) cells into the dorsal subcutis. […] The tumors were allowed to grow to about 50 mm^3, and animals were then pair-matched into groups of 6 mice. Initial doses of protein or vehicle (PBS, control) were given on the day of pair-matching (Day 1). Tumstatin-44-131, Tum-5-125-C-A, or human endostatin in sterile PBS was intraperitoneally injected daily b.i.d. at doses ranging from 1 to 20 mg/kg for 20 days. Control animals received injection of PBS vehicle. In one treatment, continuous subcutaneous delivery of Tumstatin-44-131 was done using surgically implanted Alzet mini-pumps. The mice were weighed twice weekly, and tumor measurements were taken, starting on Day 1. Estimated mean tumor volumes were calculated, and at Day 21, the mice were weighed, sacrificed, and their tumors excised and examined by light microscopy and CD31 immunostaining. The mean treated tumor weight was divided by the mean control tumor weight was subtracted from one, and expressed as a percentage to give the tumor growth inhibition for each group.

| Molecule | percentage of annexin-V-stained (apoptotic) cells (C-PAE cells [1]; 4 and 6 hours) [%] | percentage of annexin-V-stained (apoptotic) cells (C-PAE cells [1]; 2 hours) | fold increase in Caspase-3 activity (Caspase-3 in C-PAE cells [2]; 10 μg/ml E. Coli-expressed Tumstatin-44-131) [fold] | fold increase in Caspase-3 activity (Caspase-3 in C-PAE cells [2]; 50 μg/ml T3 peptide) [fold] | fold increase in Caspase-3 activity (Caspase-3 in C-PAE cells [3]) [fold] | effect on viability of PC-3 cells (PC-3 cells) | effect on viability of DU-145 cells (DU-145 cells) | detection by antisera / autoantibodies from patients with Goodpasture syndrome (Goodpasture autoantibody) | cell cycle arrest compared with Tumstatin-44-131 (C-PAE cells [4]) | tumor growth inhibition (PC-3 tumors) [%] |
| --- | --- | --- | --- | --- | --- | --- | --- | --- | --- | --- |
| TNF-α [reference compound] | ~20 | about 27% | 4.5 | 4.5 | 1.7 | – | – | – | – | – |
| B1 | – | – | – | – | – | not seen | not seen | failed to detect | equivalent to treatment with Tumstatin-44-131 | 92.0 |
